Test results reported in patent US20050004163A1, “3-(diarylmethylene)-8-azabicyclo[3.2.1]octane derivatives” (priority 2000, published 2005).
Structures can show the parent of a compound that is named as a salt.

Each compound was assayed against T1, μ-opioid receptor (Rattus norvegicus, UniProt P33535) (assay: Rat brain μ-opioid receptor binding assay ([3H]DAMGO)). Conditions: 10 nM solutions of the compounds, read-out: MOR binding Ki.
T1 construct: the forebrains are homogenized in Tris buffer in a Teflon®-glass homogenizer; from tissue; host or cells: forebrain of male Wistar rats (particulate membrane preparation)
T1 sequence (P33535 whole entry): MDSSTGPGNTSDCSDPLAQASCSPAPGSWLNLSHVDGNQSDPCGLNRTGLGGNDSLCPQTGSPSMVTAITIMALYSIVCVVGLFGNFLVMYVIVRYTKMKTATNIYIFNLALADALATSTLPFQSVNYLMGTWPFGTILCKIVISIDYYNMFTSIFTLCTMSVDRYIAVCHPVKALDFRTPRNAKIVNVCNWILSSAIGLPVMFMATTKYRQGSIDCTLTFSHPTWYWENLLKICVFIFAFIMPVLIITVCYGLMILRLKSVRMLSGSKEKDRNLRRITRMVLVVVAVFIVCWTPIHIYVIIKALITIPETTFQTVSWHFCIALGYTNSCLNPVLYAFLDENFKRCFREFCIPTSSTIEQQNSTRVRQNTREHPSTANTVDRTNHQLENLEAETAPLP
Protocol: Rat Brain μ-Opioid Receptor Binding Assay
Male, Wistar rats (150-250 g, VAF, Charles River, Kingston, N.Y.) are killed by cervical dislocation and their brains removed and placed immediately in ice cold Tris HCl buffer (50 mM, pH 7.4). The forebrains are separated from the remainder of the brain by a coronal transection, beginning dorsally at the colliculi and passing ventrally through the midbrain-pontine junction. After dissection, the forebrains are homogenized in Tris buffer in a Teflon®-glass homogenizer. The homogenate is diluted to a concentration of 1 g of forebrain tissue per 100 mL Tris buffer and centrifuged at 39,000×G for 10 min. The pellet is resuspended in the same volume of Tris buffer with several brief pulses from a Polytron homogenizer. This particulate preparation is used for the μ-opioid binding assays. […] The tubes and filters are rinsed three times with 4 mL of 10 mM HEPES (pH 7.4) and the radioactivity associated with the filter circles determined using Formula 989 scintillation fluid (New England Nuclear, Boston, Mass.) in a scintillation counter.
The data are used to calculate either the % inhibition compared to control binding (when only a single concentration of test compound is evaluated) or a Ki value (when a range of concentrations is tested).
% Inhibition is calculated as follows: [formula]
Ki value is calculated using the LIGAND (Munson, P. J. and Rodbard, D., Anal. Biochem. 107: 220-239, 1980) data analysis program.

| SMILES | Ki [µM] |
| --- | --- |
| CCNC(=O)c1ccc(C(=C2CC3CCC(C2)N3Cc2ccco2)c2nnn[nH]2)cc1 [Cpd 204] | 25.3 |
| CCNC(=O)c1ccc(C(=C2CC3CCC(C2)N3Cc2ccsc2)c2cnc3ccccc3c2)cc1 [Cpd 15] | 0.127 |
| CCN(CC)C(=O)c1ccc(C=C2CC3CCC(C2)N3Cc2ccsc2)cc1 [Cpd 52] | 6.49 |
| CCNC(=O)c1ccc(C=C2CC3CCC(C2)N3Cc2sccc2C)cc1 [Cpd 38] | 0.236 |
| CCNC(=O)c1ccc(C(=C2CC3CCC(C2)N3Cc2ccco2)c2cnc3ccccc3c2)cc1 [Cpd 16] | 0.082 |
| CCNC(=O)c1ccc(C(=C2CC3CCC(C2)N3CC=C(C)C)c2cccc(C(=O)O)c2)cc1 (single isomer, unassigned) [Cpd 45] | 0.0237 |

Same assay, conditions: MOR binding Ki

| SMILES | Ki [µM] |
| --- | --- |
| CCNC(=O)c1ccc(C(=C2CC3CCC(C2)N3Cc2ccccn2)c2ccc(C(=O)O)cc2)cc1 [Cpd 98] | 0.203 |
| CCNC(=O)c1ccc(C(=C2CC3CCC(C2)N3Cc2ccccn2)c2cccc(CO)c2)cc1 [Cpd 181] | 0.00604 |
| CCNC(=O)c1ccc(C(=C2CC3CCC(C2)N3Cc2[nH]cnc2C)c2ccc3c(c2)OCO3)cc1 [Cpd 11] | 0.0462 |
| CCNC(=O)c1ccc(C(=C2CC3CCC(C2)N3Cc2cccs2)c2cccc(-c3nnn[nH]3)c2)cc1 [Cpd 168] | 0.395 |
| CCNC(=O)c1ccc(C(C#N)=C2CC3CCC(C2)N3Cc2ccoc2)cc1 [Cpd 143] | 0.00103 |
| CCNC(=O)c1ccc(C(Br)=C2CC3CCC(C2)N3Cc2ccoc2)cc1 [Cpd 26] | 0.00186 |
| CCNC(=O)c1ccc(C(=C2CC3CCC(C2)N3Cc2ccsc2)c2ccc(C(=O)O)cc2)cc1 [Cpd 176] | 0.0107 |
| CCNC(=O)c1ccc(C(Br)=C2CC3CCC(C2)N3Cc2ccoc2)cc1 (single isomer, unassigned) [Cpd 212] | 0.0385 |
| CCNC(=O)c1ccc(C(=C2CC3CCC(C2)N3Cc2csc([N+](=O)[O-])c2)c2cccc(C(C)=O)c2)cc1 [Cpd 76] | 0.184 |
| CCNC(=O)c1ccc(C(C#N)=C2CC3CCC(C2)N3Cc2ccoc2)cc1 (single isomer, unassigned) [Cpd 210] | 0.0023 |
| CNC(=O)c1ccc(C=C2CC3CCC(C2)N3CC2CC2)cc1 [Cpd 105] | 5.62 |
| CCNC(=O)c1ccc(C=C2CC3CCC(C2)N3CC(N)Cc2ccccc2)cc1 (stereo not drawn) [Cpd 1, 4-[8-(2-Amino-3-phenyl-propyl)-8-aza-bicyclo[3.2.1]oct-3-ylidenemethyl]-N-ethyl-benzamide Hydrochloride] | 0.34 |
| CCN(CC)C(=O)c1ccc(C(Br)=C2CC3CCC(C2)N3CCc2ccccc2)cc1 [Cpd 89, 4-[Bromo-(8-phenethyl-8-azabicyclo[3.2.1]oct-3-ylidene)-methyl]-N,N-diethylbenzamide] | 1.01 |
| CCNC(=O)c1ccc(C(=C2CC3CCC(C2)N3Cc2ccsc2)c2cccc(CN)c2)cc1 [Cpd 162] | 0.849 |
| CCNC(=O)c1ccc(C(=C2CC3CCC(C2)N3Cc2cccs2)c2cccc3cccnc23)cc1 [Cpd 68] | 0.155 |
| CCNC(=O)c1ccc(C(=C2CC3CCC(C2)N3Cc2ccoc2)c2cc(C(=O)O)cc([N+](=O)[O-])c2)cc1 [Cpd 152] | 0.0122 |
| CCNC(=O)c1ccc(C(=C2CC3CCC(C2)N3Cc2ccc(NC(C)=O)cc2)c2cnc3ccccc3c2)cc1 [Cpd 14] | 0.959 |
| CCNC(=O)c1ccc(C(=C2CC3CCC(C2)N3Cc2ccc(NC(C)=O)cc2)c2cccc(C(=O)O)c2)cc1 [Cpd 84] | 5.66 |
| CCNC(=O)c1ccc(C(=C2CC3CCC(C2)N3Cc2ccco2)c2nnn[nH]2)cc1 (single isomer, unassigned) [Cpd 203] | 5.45 |
| CCNC(=O)c1ccc(C=C2CC3CCC(C2)N3CC#Cc2ccccc2)cc1 [Cpd 59] | 0.0316 |
| CCNC(=O)c1ccc(C(Br)=C2CC3CCC(C2)N3Cc2[nH]cnc2C)cc1 [Cpd 27] | 0.0998 |
| CCNC(=O)c1ccc(C(=C2CC3CCC(C2)N3Cc2ccc3ccccc3n2)c2cnccn2)cc1 [Cpd 30] | 0.015 |
| CCNC(=O)c1ccc(C(=C2CC3CCC(C2)N3Cc2ccccn2)c2ccc(NS(C)(=O)=O)cc2)cc1 [Cpd 182] | 0.00271 |
| CCNC(=O)c1ccc(C=C2CC3CCC(C2)N3CC=C(C)C)cc1 [Cpd 55] | 0.195 |
